# Test results published in publication PMC2955773 (ACS chemical biology, 2010).
# What was measured:
# Type in all cases: cell-based
# Nox2 = target: T1, Nox2 (Homo sapiens, UniProt P04839); experiment: HEK293-Nox2 selectivity assay
# T1 sequence (P04839 2-570 limits assumed): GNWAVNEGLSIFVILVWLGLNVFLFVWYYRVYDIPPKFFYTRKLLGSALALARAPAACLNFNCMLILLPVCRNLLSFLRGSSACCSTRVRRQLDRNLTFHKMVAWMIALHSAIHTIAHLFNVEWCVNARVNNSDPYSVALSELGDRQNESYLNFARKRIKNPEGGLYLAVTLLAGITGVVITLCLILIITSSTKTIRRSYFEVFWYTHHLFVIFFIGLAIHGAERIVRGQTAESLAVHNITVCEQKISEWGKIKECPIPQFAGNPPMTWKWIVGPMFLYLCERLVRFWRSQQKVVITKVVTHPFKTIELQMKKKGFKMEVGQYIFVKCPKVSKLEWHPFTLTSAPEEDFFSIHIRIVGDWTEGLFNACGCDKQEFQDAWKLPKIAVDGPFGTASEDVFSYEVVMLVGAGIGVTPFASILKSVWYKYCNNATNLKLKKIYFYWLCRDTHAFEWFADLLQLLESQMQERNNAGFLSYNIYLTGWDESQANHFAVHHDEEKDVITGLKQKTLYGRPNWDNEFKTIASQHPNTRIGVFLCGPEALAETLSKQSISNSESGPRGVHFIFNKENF
# T1 sequence (P13498 2-195 partner limits assumed): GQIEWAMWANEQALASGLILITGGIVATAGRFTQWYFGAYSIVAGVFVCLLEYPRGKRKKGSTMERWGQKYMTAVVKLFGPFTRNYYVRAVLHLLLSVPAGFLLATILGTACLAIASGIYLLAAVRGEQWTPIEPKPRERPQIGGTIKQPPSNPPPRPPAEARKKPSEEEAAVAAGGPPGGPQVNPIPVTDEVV
# Nox3 = target: T2, Nox3 (Homo sapiens, UniProt Q9HBY0); experiment: HEK293-Nox3 selectivity assay
# T2 sequence (Q9HBY0 1-568): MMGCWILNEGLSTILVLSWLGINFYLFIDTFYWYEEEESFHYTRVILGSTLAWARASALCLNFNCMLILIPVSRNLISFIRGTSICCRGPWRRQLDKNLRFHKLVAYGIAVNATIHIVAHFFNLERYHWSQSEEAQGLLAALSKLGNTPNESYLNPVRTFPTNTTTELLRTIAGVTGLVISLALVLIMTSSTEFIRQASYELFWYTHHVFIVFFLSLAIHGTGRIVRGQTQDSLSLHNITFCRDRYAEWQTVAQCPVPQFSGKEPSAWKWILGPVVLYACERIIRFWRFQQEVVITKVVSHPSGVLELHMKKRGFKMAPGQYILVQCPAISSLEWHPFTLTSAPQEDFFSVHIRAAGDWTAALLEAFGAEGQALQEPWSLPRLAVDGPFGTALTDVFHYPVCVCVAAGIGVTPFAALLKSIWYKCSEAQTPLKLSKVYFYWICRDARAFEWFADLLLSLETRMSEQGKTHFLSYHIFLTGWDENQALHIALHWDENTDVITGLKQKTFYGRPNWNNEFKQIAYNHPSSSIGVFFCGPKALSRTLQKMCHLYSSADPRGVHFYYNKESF
# T2 sequence (P13498 2-195 partner limits assumed): T1 sequence (P13498 2-195 partner limits assumed)
# Nox4 = target: T3, Nox4 (Homo sapiens, UniProt Q9NPH5); experiment: HEK293-Nox4 selectivity assay
# T3 sequence (Q9NPH5 1-578): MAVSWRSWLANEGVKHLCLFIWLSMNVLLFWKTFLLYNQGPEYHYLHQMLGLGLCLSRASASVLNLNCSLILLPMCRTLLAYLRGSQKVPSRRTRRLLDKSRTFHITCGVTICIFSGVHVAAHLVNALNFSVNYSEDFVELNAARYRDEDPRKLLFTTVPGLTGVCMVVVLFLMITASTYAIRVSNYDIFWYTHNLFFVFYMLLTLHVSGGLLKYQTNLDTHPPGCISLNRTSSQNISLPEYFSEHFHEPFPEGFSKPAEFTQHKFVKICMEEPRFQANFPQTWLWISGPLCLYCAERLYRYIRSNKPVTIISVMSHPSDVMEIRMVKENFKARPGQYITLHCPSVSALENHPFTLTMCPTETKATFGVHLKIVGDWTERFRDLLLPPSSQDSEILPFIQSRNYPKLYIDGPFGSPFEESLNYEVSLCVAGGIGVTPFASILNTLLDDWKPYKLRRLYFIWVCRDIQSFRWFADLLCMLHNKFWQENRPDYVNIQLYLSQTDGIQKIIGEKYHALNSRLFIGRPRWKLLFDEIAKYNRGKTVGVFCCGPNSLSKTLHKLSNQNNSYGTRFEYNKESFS
# T3 sequence (P13498 2-195 partner limits assumed): T1 sequence (P13498 2-195 partner limits assumed)
# HT29 cells = experiment: CellTiter Glo toxicity assay; conditions: 10 μM in HT29 cells
structure (smiles),measurement,setting,value
FC(F)(F)c1ccc2c(c1)Nc1ccccc1S2,activity on other Nox isoforms,Nox2,only a marginal activity
same,activity on other Nox isoforms,Nox3,only a marginal activity
same,activity on other Nox isoforms,Nox4,only a marginal activity
same,cell death,HT29 cells,did not cause cell death
